Results reported in PMC10870767, “Extraction, Purification, and Characterization of Olive (Olea europaea L., cv. Chemlal) Polyphenol Oxidase” (Journal of Agricultural and Food Chemistry, 2024).
“And” between values parts separate entries of the source, which are not always exact repeats. Equal values may be shown once. Read-outs that look alike come from different tables or passages of the source.

Tests used:
OePPO1 = experiment: Effect of metal ions on OePPO1 activity; format: biochemical, Olea europaea L., cv. Chemlal
mango PPO = conditions: cited from earlier work; for residual activity: 10 mM inhibitor
apricot PPO = conditions: cited from earlier work; for residual activity: 10 mM inhibitor
blueberry PPO = system: blueberry PPO; parameters: method as in PMID 27719900; conditions: cited from earlier work
[1] = target: T1, olive polyphenol oxidase (OePPO) (Olea europaea, UniProt A0A8S0TLT4); experiment: Effect of inhibitors on OePPO activity; format: biochemical, Olea europaea L., cv. Chemlal; conditions: 10 mM catechol; for IC100: read-out: concentration for complete suppression/inhibition of OePPO activity
Procedure: (§1) OePPO activity measurements were carried out spectrophotometrically at 25 °C using a 96-well microplate reader (Infinite M200, Tecan). The assay mixture, with a volume of 200 μL, was monitored for the increase in absorbance at 410 nm as the enzyme converted catechol, starting from ∼25 s after mixing (time required for pipetting and initiating the microplate reader) and continuing until the reaction curve reached a plateau phase (after ∼15 min). The standard reaction mixture consisted of 0.5 μg of enzyme and 10 mM catechol in 50 mM sodium phosphate buffer (pH 7.5) along with the optimal concentration of SDS (5 mM) as determined. […] OePPO activity was assessed by calculating the slope of the initial linear segment of the experimental curves, where the absorbance was plotted against time. The activity was expressed in U/mg, with one unit of enzymatic activity (U) defined as the amount of enzyme that catalyzed the formation of 1 μmol of quinones per minute (1 U = 1 μmol/min). All experiments were conducted in triplicate, and the protein concentrations in the enzyme solutions were determined using the Bradford method[15] with bovine serum albumin as a standard.
The optimum concentration range for each inhibitor was established through preliminary experiments (data not shown). OePPO activity was measured using the same assay conditions previously described, and the results were expressed as the percentage of residual activity relative to the control mixture (100%) without inhibitors. The half inhibitory concentration (IC50) was determined for each inhibitor using nonlinear regression.

banana PPO = system: banana PPO; parameters: method as in doi:10.1021/jf980473d; conditions: cited from earlier work
[2] = target: T1, olive polyphenol oxidase (OePPO); experiment: Effect of SDS on OePPO activity (activation of latent enzyme); format: biochemical, Olea europaea L., cv. Chemlal
Procedure: as §1
The effect of different concentrations of SDS (0–100 mM) on OePPO activity was investigated.

[3] = target: T1, olive polyphenol oxidase (OePPO); experiment: Enzyme kinetics and substrate specificity of purified OePPO; format: biochemical, Olea europaea L., cv. Chemlal; conditions: for kcat: substrate of purified OePPO, 50 mM sodium phosphate buffer pH 7.5, 5 mM SDS, 25 °C
Procedure: as §1

[4] = 1 mM metal salt, 50 mM sodium citrate buffer, 5 mM SDS, control without metal ions = 100%
[5] = 5 mM metal salt, 50 mM sodium citrate buffer, 5 mM SDS, control without metal ions = 100%
[6] = 10 mM metal salt, 50 mM sodium citrate buffer, 5 mM SDS, control without metal ions = 100%
[7] = 100 mM metal salt, 50 mM sodium citrate buffer, 5 mM SDS, control without metal ions = 100%

T1 sequence (A0A8S0TLT4 entry or part of it): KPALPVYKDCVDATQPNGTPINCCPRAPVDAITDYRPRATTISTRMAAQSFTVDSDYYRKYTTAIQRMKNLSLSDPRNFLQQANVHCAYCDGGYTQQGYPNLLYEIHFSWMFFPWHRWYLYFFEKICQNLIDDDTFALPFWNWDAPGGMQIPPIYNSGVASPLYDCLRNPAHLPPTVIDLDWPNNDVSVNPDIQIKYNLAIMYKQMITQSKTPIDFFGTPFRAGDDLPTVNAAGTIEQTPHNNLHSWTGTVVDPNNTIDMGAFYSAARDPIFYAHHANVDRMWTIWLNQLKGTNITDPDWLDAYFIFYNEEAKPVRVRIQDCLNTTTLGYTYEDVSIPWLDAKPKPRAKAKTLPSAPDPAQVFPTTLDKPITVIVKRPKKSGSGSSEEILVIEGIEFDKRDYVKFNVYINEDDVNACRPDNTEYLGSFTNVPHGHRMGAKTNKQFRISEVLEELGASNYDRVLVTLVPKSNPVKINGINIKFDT

SMILES | relative activity (OePPO1; [4]) | relative activity (OePPO1; [5]) | relative activity (OePPO1; [6]) | relative activity (OePPO1; [7]) | other results
[Cl][Al]([Cl])[Cl] [AlCl3] | 98 ± 1.9% | 90 ± 1.2% | 82 ± 2.7% | 0.0 ± 0.00% | 
[Ca+2].[Cl-].[Cl-] [CaCl2] | 103 ± 2.0% | 96 ± 2.8% | 93 ± 2.9% | 66 ± 4.1% | 
[Cl][Cr]([Cl])[Cl] [CrCl3] | 80 ± 2.8% | 63 ± 1.6% | 0.0 ± 0.00% | 0.0 ± 0.00% | relative activity (OePPO1; 1 mM metal salt, 50 mM sodium citrate buffer, 5 mM SDS, control without metal ions = 100%, listed as Cr^3+): 80%; relative activity (OePPO1; 10 mM metal salt, 50 mM sodium citrate buffer, 5 mM SDS, control without metal ions = 100%, listed as Cr^3+): complete suppression
O=S(=O)([O-])[O-].[Cu+2] [CuSO4] | 106 ± 4.3% | 112 ± 1.9% | 110 ± 3.9% | 37 ± 2.6% | relative activity (OePPO1; 5 mM metal salt, 50 mM sodium citrate buffer, 5 mM SDS, control without metal ions = 100%, listed as Cu^2+): 112%; relative activity (OePPO1; 100 mM metal salt, 50 mM sodium citrate buffer, 5 mM SDS, control without metal ions = 100%, listed as Cu^2+): drastically reduced
[Cl][Fe][Cl] [FeCl2] | 87 ± 2.3% | 74 ± 1.7% | 56 ± 2.0% | 22 ± 6.6% | relative activity (OePPO1; 1 mM metal salt, 50 mM sodium citrate buffer, 5 mM SDS, control without metal ions = 100%, listed as Fe^2+): 87%
[Cl-].[K+] [KCl] | 98 ± 3.8% | 98 ± 1.4% | 96 ± 2.1% | 64 ± 2.8% | 
O=c1cc(CO)occ1O [Kojic acid, kojic acid] |  |  |  |  | inhibition of enzymatic browning (mango PPO; 10 mM): effectively inhibiting enzymatic browning
N[C@@H](CS)C(=O)O [L-cysteine] |  |  |  |  | concentration with complete inhibitory effect (mango PPO): around 1 mM; concentration with complete inhibitory effect (apricot PPO): around 1 mM; concentration with complete inhibitory effect (blueberry PPO): around 1 mM
[Cl-].[Cl-].[Mg+2] [MgCl2] | 100 ± 2.7% | 97 ± 1.4% | 95 ± 1.8% | 72 ± 3.4% | 
[Cl][Mn][Cl] [MnCl2] | 99 ± 2.1% | 92.1 ± 0.84% | 60 ± 3.2% | 0.0 ± 0.00% | 
NC(=S)Nc1ccccc1 [N-phenylthiourea] |  |  |  |  | concentration that completely inhibited enzymatic activity ([1]; pH 7.5, 5 mM SDS): 50 µM
[Cl-].[Na+] [NaCl] |  |  |  |  | relative activity (OePPO1): 101 ± 3.1% and 99 ± 2.3% and 103 ± 2.8% and 88 ± 5.4%
O=S(=O)([O-])[O-].[Ni+2] [NiSO4] | 103 ± 2.3% | 101.3 ± 0.57% | 92 ± 1.7% | 88 ± 4.3% | 
CCCCCCCCCCCCOS(=O)(=O)[O-].[Na+] [SDS, sodium lauryl sulfate] |  |  |  |  | SDS concentration for full activation of latent PPO (banana PPO): 2 mM; increase of OePPO activity versus absence of SDS ([2]; 5 mM SDS, phosphate buffer pH 7.5): ~10 fold; OePPO activity compared to the absence of SDS ([2]; 100 mM SDS, phosphate buffer pH 7.5): three times the activity; optimal SDS concentration for full activation of latent OePPO ([2]; phosphate buffer pH 7.5, catechol): 5 mM; SDS concentration necessary to achieve full activity (mango PPO): 6.93 mM; SDS concentration for full activation of latent PPO (apricot PPO): 2 mM
[Cl-].[Cl-].[Zn+2] [ZnCl2] | 99 ± 1.2% | 108.9 ± 0.92% | 107.3 ± 0.54% | 15 ± 5.1% | relative activity (OePPO1; 5 mM metal salt, 50 mM sodium citrate buffer, 5 mM SDS, control without metal ions = 100%, listed as Zn^2+): 109%; relative activity (OePPO1; 100 mM metal salt, 50 mM sodium citrate buffer, 5 mM SDS, control without metal ions = 100%, listed as Zn^2+): drastically reduced
O=C1O[C@H]([C@@H](O)CO)C(O)=C1O [ascorbic acid] |  |  |  |  | concentration with complete inhibitory effect (mango PPO): around 1 mM; concentration with complete inhibitory effect (apricot PPO): around 1 mM; concentration with complete inhibitory effect (blueberry PPO): around 1 mM; IC100 ([1]; pH 7.5, 5 mM SDS): 1000 µM
O=C(O)CC(O)(CC(=O)O)C(=O)O [citric acid] |  |  |  |  | residual activity (mango PPO): > 60%; residual activity (apricot PPO): exceeding 80%
NCCc1ccc(O)c(O)c1 [dopamine] |  |  |  |  | kcat [3]: 13.98 ± 0.07 s^–1
N[C@@H](CCC(=O)N[C@@H](CS)C(=O)NCC(=O)O)C(=O)O [glutathione, reduced, reduced glutathione] |  |  |  |  | concentration with complete inhibitory effect (mango PPO): around 1 mM; concentration with complete inhibitory effect (apricot PPO): around 1 mM; concentration with complete inhibitory effect (blueberry PPO): around 1 mM; IC50 ([1]; 50 mM sodium phosphate buffer pH 7.5, 5 mM SDS, 25 °C, nonlinear regression): 62 ± 3 µM; concentration for complete suppression/inhibition of OePPO activity ([1]; pH 7.5, 5 mM SDS): 1 mM
O=S(O)S(=O)(=O)O [sodium metabisulfite] |  |  |  |  | concentration with complete inhibitory effect (mango PPO): around 1 mM; concentration with complete inhibitory effect (apricot PPO): around 1 mM; concentration with complete inhibitory effect (blueberry PPO): around 1 mM; IC100 ([1]; pH 7.5, 5 mM SDS): 1000 µM
O=C(O)CCC(=O)O [succinic acid] |  |  |  |  | residual activity (mango PPO): > 60%; residual activity (apricot PPO): exceeding 80%
NCCc1ccc(O)cc1 [tyramine] |  |  |  |  | kcat [3]: 0.093 ± 0.005 s^–1
OCCc1ccc(O)cc1 [tyrosol] |  |  |  |  | processed faster than tyramine ([3]; monophenolase activity, compared with tyramine): > 10 times
